Ki data for 18 compounds are collected here from patent US7279491B2 (Janssen Pharmaceutica N.V., priority 2002, dated 2007).

pKi: −log10 of the molar value.

T1 sequence (Q9Y5N1 whole entry): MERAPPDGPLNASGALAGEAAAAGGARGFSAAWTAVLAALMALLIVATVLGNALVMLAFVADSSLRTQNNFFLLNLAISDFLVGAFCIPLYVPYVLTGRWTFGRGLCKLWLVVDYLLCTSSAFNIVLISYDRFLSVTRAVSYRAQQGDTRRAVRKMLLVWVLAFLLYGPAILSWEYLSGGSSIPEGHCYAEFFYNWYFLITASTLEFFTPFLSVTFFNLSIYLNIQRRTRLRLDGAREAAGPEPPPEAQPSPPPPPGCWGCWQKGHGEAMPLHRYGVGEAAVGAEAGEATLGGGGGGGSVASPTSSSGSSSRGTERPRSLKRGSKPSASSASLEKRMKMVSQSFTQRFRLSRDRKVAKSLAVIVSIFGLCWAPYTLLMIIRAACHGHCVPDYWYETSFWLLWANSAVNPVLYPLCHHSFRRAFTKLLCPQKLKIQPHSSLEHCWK

The assay addresses T1, human histamine H3 receptor (Homo sapiens, UniProt Q9Y5N1).
T1 construct: One microgram of supercoiled H3 receptor cDNA was added to the cells and mixed; expressed in transfected cells; membranes
Put plainly: {3H}-N-methylhistamine binding to membranes of histamine H3 receptor-expressing SK-N-MC cells. Conditions: 0.8 nM {3H}-N-methylhistamine, 45 min at 25° C., Ki=(IC50)/(1+({L}/(Kd)), Kd 800 pM). As to the method: Transfection of Cells with Human Histamine Receptor
A 10 cm tissue culture dish with a confluent monolayer of SK-N-MC cells was split two days prior to transfection. Using sterile technique the media was removed and the cells were detached from the dish by the addition of trypsin. One fifth of the cells were then placed onto a new 10 cm dish. Cells were grown in a 37° C. incubator with 5% CO2 in Minimal Essential Media Eagle with 10% Fetal Bovine Serum. After two days cells were approximately 80% confluent. These were removed from the dish with trypsin and pelleted in a clinical centrifuge. The pellet was then re-suspended in 400 μL complete media and transferred to an electroporation cuvette with a 0.4 cm gap between the electrodes. One microgram of supercoiled H3 receptor cDNA was added to the cells and mixed. The voltage for the electroporation was set at 0.25 kV, the capacitance was set at 960 μF. After electroporation the cells were diluted into 10 mL complete media and plated onto four 10 cm dishes. Because of the variability in the efficiency of electroporation, four different concentrations of cells were plated. The ratios used were; 1:20, 1:10, 1:5, with the remainder of the cells being added to the fourth dish. The cells were allowed to recover for 24 h before adding the selection media (complete media with 600 μg/mL G418). After 10 days dishes were analyzed for surviving colonies of cells. Dishes with well-isolated colonies were used. Cells from individual colonies were isolated and tested. SK-N-MC cells were used because they give efficient coupling for inhibition of adenylate cyclase. The clones that gave the most robust inhibition of adenylate cyclase in response to histamine were used for further study.
{^3H}-N-methylhistamine Binding
Cell pellets from histamine H3 receptor-expressing SK-N-MC cells were homogenized in 20 mM Tris HCl/0.5 mM EDTA. Supernatants from an 800 g spin were collected, recentrifuged at 30,000 g for 30 min. Pellets were re-homogenized in 50 mM Tris/5 mM EDTA (pH 7.4). Membranes were incubated with 0.8 nM {^3H}-N-methylhistamine plus/minus test compounds for 45 min at 25° C. and harvested by rapid filtration over GF/C glass fiber filters (pretreated with 0.3% polyethylenimine) followed by four washes with ice-cold buffer. Filters were dried, added to 4 mL scintillation cocktail and then counted on a liquid scintillation counter. Non-specific binding was defined with 10 μM histamine. The pKi values were calculated based on a Kd of 800 pM and a ligand concentration ({L}) of 800 pM according to the formula: Ki=(IC50)/(1+({L}/(Kd))
Broadly, the pKi is the negative decadic logarithm of the Ki, by convention in mol/L. Take `c1cc(N2CCC(CCN3CCOCC3)C2)ccc1CN1CCCCC1` (stereo not drawn) [Example 60, 4-{2-{1-(4-Piperidin-1-ylmethyl-phenyl)-pyrrolidin-3-yl}-ethyl}-morpholine]: the pKi was 8.96. Next, `CCN(CC)CCC1CCN(c2ccc(CN3CCCCC3)cc2)C1` (stereo not drawn) [Example 61, Diethyl-{2-{1-(4-piperidin-1-ylmethyl-phenyl)-pyrrolidin-3-yl}-ethyl}-amine]: 9.10; `CN(CCc1ccccc1)CCC1CCN(c2ccc(CN3CCCCC3)cc2)C1` (stereo not drawn) [Example 62, Methyl-phenethyl-{2-{1-(4-piperidin-1-ylmethyl-phenyl)-pyrrolidin-3-yl}-ethyl}-amine]: 8.89. With `FC(F)(F)c1cc(CN2CCCCC2)ccc1N1CCC(CN2CCCC2)CC1` [Example 68, 1-[4-(4-Pyrrolidin-1-ylmethyl-piperidin-1-yl)-3-trifluoromethyl-benzyl]-piperidine], the pKi is 7.85. In turn, `O=[N+]([O-])c1cc(CN2CCCCC2)ccc1N1CCC(CN2CCCC2)CC1` [Example 69] had a pKi of 8.70. This pKi is 0.85 log units higher than that of the compound before.

In turn, `O=[N+]([O-])c1cc(CN2CCOCC2)ccc1N1CCC(CN2CCCC2)CC1` [Example 70, 4-[3-Nitro-4-(4-pyrrolidin-1-ylmethyl-piperidin-1-yl)-benzyl]-morpholine] showed a pKi of 7.44. The same measure for `O=[N+]([O-])c1cc(CN2CCC(O)CC2)ccc1N1CCC(CN2CCCC2)CC1` [Example 71, 1-[3-Nitro-4-(4-pyrrolidin-1-ylmethyl-piperidin-1-yl)-benzyl]-piperidin-4-ol]: 8.30; for `FC(F)(F)c1cc(N2CCC(CN3CCCC3)CC2)ccc1CN1CCCCC1` [Example 72, 1-[4-(4-Pyrrolidin-1-ylmethyl-piperidin-1-yl)-2-trifluoromethyl-benzyl]-piperidine]: 8.10.

As to `Cc1cc(CN2CCN(C(C)C)CC2)ccc1N1CCC(CN2CCCC2)CC1` [Example 73, 1-Isopropyl-4-[3-methyl-4-(4-pyrrolidin-1-ylmethyl-piperidin-1-yl)-benzyl]-piperazine], the pKi is 7.80. Next, `Cc1cc(CN2CCCC2)ccc1N1CCC(CN2CCCC2)CC1` [Example 74]: 9.00; `Cc1cc(CN2CCCCC2)ccc1N1CCC(CN2CCCC2)CC1` [Example 75]: 8.22; `FC(F)(F)c1cc(CN2CCC(N3CCCC3)CC2)ccc1N1CCC(CN2CCCC2)CC1` [Example 76, 1-{1-[4-(4-Pyrrolidin-1-yl-piperidin-1-ylmethyl)-2-trifluoromethyl-phenyl]-piperidin-4-ylmethyl}-pyrrolidine]: 8.05. The same measure for `FC(F)(F)c1ccc(C2CCN(Cc3ccc(N4CCC(CN5CCCC5)CC4)cc3C(F)(F)F)CC2)cc1` [Example 77, 1-(1-{3-Trifluoromethyl-4-[4-(4-trifluoromethyl-phenyl)-piperidin-1-ylmethyl]-phenyl}-piperidin-4-ylmethyl)-pyrrolidine]: 6.80. Next, `Fc1cc(CN2CCC(c3ccccc3)CC2)ccc1N1CCC(CN2CCCC2)CC1` [Example 78, 1-{1-[2-Fluoro-4-(4-phenyl-piperidin-1-ylmethyl)-phenyl]-piperidin-4-ylmethyl}-pyrrolidine]: 8.15; `CN(C)Cc1ccc(N2CCC(CN3CCCC3)CC2)c(F)c1` [Example 79, [3-Fluoro-4-(4-pyrrolidin-1-ylmethyl-piperidin-1-yl)-benzyl]-dimethyl-amine]: 8.40; `Fc1cc(CN2CCCCC2)ccc1N1CCC(CN2CCCC2)CC1` [Example 80, 1-[3-Fluoro-4-(4-pyrrolidin-1-ylmethyl-piperidin-1-yl)-benzyl]-piperidine]: 8.40. `FC(F)(F)c1cc(N2CCC(CN3CCCC3)CC2)ccc1CN1CCOCCOCCOCCOCC1` [Example 81, 13-[4-(4-pyrrolidin-1-ylmethyl-piperidin-1-yl)-2-trifluoromethyl-benzyl]-1,4,7,10-tetraoxa-13-aza-cyclopentadecane Ditrifluoromethanesulfonate] showed a pKi of 7.47. Compared with the last compound, the pKi is 0.93 log units lower. For the compound `OCC1CCN(Cc2ccc(N3CCC(CN4CCCC4)CC3)c(C(F)(F)F)c2)CC1` [Example 82, {1-[4-(4-Pyrrolidin-1-ylmethyl-piperidin-1-yl)-3-trifluoromethyl-benzyl]-piperidin-4-yl}-methanol], the pKi was 6.77. This pKi lies 0.70 log units lower than the previous one.
